Target: T1, Muscarinic acetylcholine receptor M1 (Rattus norvegicus, UniProt P08482)
T1 sequence (P08482 whole entry): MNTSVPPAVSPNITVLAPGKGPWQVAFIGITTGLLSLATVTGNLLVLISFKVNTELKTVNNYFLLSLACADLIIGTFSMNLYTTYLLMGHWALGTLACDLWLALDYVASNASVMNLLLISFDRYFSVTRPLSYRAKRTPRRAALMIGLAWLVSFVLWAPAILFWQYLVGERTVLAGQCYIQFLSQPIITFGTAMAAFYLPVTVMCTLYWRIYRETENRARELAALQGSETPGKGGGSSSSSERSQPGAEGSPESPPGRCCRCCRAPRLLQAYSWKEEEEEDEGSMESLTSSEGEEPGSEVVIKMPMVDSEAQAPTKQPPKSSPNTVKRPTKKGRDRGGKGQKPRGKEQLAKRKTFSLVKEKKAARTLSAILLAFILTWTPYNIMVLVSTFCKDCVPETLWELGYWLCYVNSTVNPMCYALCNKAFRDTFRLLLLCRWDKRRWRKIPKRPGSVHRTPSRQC
Assay: Binding affinity against Muscarinic receptor M1 in rat brain using [3H]-PZ (pirenzepine) radioligand at a concentration of 1 nM
Format: tissue-based

Structure (SMILES) | IC50
O=C1CCON1CC#CCN1CCCC1 | 78 nM
CN(C)CC#CCN1OCCC1=O | 7100 nM
C(#CCN1CCCC1)COC1=NOCC1 | 412 nM
O=C1CCCN1CC#CCN1CCCC1 [OXOTREMORINE] | 100 nM
C[N+](C)(C)CC#CCN1OCCC1=O | 1300 nM

Target: T2, Muscarinic acetylcholine receptor M2 (Rattus norvegicus, UniProt P10980)
T2 sequence (P10980 whole entry): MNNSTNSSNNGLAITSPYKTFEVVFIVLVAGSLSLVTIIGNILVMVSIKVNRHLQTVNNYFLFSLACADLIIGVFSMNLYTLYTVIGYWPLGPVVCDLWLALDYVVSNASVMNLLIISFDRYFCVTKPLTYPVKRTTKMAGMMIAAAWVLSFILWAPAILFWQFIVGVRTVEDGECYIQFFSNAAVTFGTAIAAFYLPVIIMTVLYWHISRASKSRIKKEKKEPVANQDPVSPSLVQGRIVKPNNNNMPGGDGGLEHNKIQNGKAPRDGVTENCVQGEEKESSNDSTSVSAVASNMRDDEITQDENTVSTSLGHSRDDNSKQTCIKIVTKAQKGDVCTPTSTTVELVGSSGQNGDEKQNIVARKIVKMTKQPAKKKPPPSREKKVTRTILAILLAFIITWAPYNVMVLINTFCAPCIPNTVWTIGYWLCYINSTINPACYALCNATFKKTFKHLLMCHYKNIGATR
Assay: Binding affinity against Muscarinic receptor M2 in rat brain using [3H]QNB (quinuclidinyl benzylate) radioligand at a concentration of 0.12 nM
Format: tissue-based

Structure (SMILES) | IC50
O=C1CCON1CC#CCN1CCCC1 | 2800 nM
CN(C)CC#CCN1OCCC1=O | 101000 nM
C(#CCN1CCCC1)COC1=NOCC1 | 8600 nM
O=C1CCCN1CC#CCN1CCCC1 [OXOTREMORINE] | 2000 nM
C[N+](C)(C)CC#CCN1OCCC1=O | 17400 nM

Target: T2, Muscarinic acetylcholine receptor M2
Assay: Muscarinic receptor M2 in rat heart using [3H]QNB (quinuclidinyl benzylate) radioligand as a M2 non-selective muscarinic receptor antagonist at a concentration of 0.12 nM

Structure (SMILES) | IC50
O=C1CCON1CC#CCN1CCCC1 | 215 nM
CN(C)CC#CCN1OCCC1=O | 1380 nM
C(#CCN1CCCC1)COC1=NOCC1 | 233 nM
O=C1CCCN1CC#CCN1CCCC1 [OXOTREMORINE] | 84 nM
C[N+](C)(C)CC#CCN1OCCC1=O | 74 nM

Target: Muscarinic acetylcholine receptor
Assay: Compound was assessed for the binding affinity against muscarinic receptor subtypes in rat brain using [3H]OXO-M radioligand as a muscarinic receptor agonist at a concentration of 0.2 nM
Format: tissue-based

Structure (SMILES) | IC50
O=C1CCON1CC#CCN1CCCC1 | 1.6 nM
CN(C)CC#CCN1OCCC1=O | 23 nM
C(#CCN1CCCC1)COC1=NOCC1 | 4 nM
O=C1CCCN1CC#CCN1CCCC1 [OXOTREMORINE] | 2 nM
C[N+](C)(C)CC#CCN1OCCC1=O | 0.8 nM

Test system: not listed separately
Assay: Selectivity for was determined by the displacement of [3H]PZ in rat brain preparations; expressed as ratio of M1/M2
Format: tissue-based

Structure (SMILES) | Selectivity ratio
CN(C)CC#CCN1OCCC1=O | 41.2
C[N+](C)(C)CC#CCN1OCCC1=O | 140

From ChEMBL document CHEMBL1129906, “Synthesis and binding affinity of new muscarinic ligands structurally related to oxotremorine” (Bioorg Med Chem Lett, 1997)
